According to ChEMBL document CHEMBL2177076, “Rational design of potent non-nucleoside inhibitors of HIV-1 reverse transcriptase” (J Med Chem, 2012):
Activity calls are given as the source filed them. No cut-off for these calls is given here.

Legend:
[1] = system: Human immunodeficiency virus 1; assay: Antiviral activity against NNRTI-resistant HIV1 harboring reverse transcriptase Y188L mutant infected in human MT4 cells assessed as inhibition of viral replication after 72 hrs by HeLa-CD4-LTR-beta-gal assay; type: functional, organism-based; settings: Human immunodeficiency virus 1, MT4, 72 h
[2] = system: Human immunodeficiency virus 1; assay: Antiviral activity against NNRTI-resistant HIV1 harboring reverse transcriptase Y181C mutant infected in human MT4 cells assessed as inhibition of viral replication after 72 hrs by HeLa-CD4-LTR-beta-gal assay; type: functional, organism-based; settings: Human immunodeficiency virus 1, MT4, 72 h
[3] = system: Human immunodeficiency virus 1; assay: Antiviral activity against NNRTI-resistant HIV1 harboring reverse transcriptase K103N mutant infected in human MT4 cells assessed as inhibition of viral replication after 72 hrs by HeLa-CD4-LTR-beta-gal assay; type: functional, organism-based; settings: Human immunodeficiency virus 1, MT4, 72 h
[4] = system: Human immunodeficiency virus 1; assay: Antiviral activity against HIV1 expressing wild type reverse transcriptase infected in human MT4 cells assessed as inhibition of viral replication after 72 hrs by HeLa-CD4-LTR-beta-gal assay; type: functional, organism-based; settings: Human immunodeficiency virus 1, MT4, 72 h
[5] = Dissociation constant, pKa of the compound; type: physicochemical
[6] = system: Human immunodeficiency virus 1; assay: Ratio of EC50 for HIV1 expressing wild type reverse transcriptase in presence of human serum albumin and human alpha-1 acid glycoprotein to EC50 for HIV1 expressing wild type reverse transcriptase; type: functional
[7] = Oral bioavailability in cynomolgus monkey at 5 mg/kg; type: ADME, organism-based, Macaca fascicularis; settings: in vivo
[8] = Oral bioavailability in dog at 5 mg/kg; type: ADME, organism-based, Canis lupus familiaris; settings: in vivo
[9] = Oral bioavailability in mouse at 5 mg/kg; type: ADME, organism-based; settings: in vivo
[10] = Oral bioavailability in Sprague-Dawley rat at 5 mg/kg; type: ADME, organism-based; settings: in vivo
[11] = system: Cynomolgus monkey; assay: AUC (0 to infinity) in cynomolgus monkey at 5 mg/kg, po; type: ADME, organism-based, Macaca fascicularis, Plasma; parameters: time infinity, dose 5 mg/kg, route oral; settings: in vivo
[12] = system: Canis familiaris; assay: AUC (0 to infinity) in dog at 5 mg/kg, po; type: ADME, organism-based, Canis lupus familiaris, Plasma; parameters: time infinity, dose 5 mg/kg, route oral; settings: in vivo
[13] = system: Rattus norvegicus; assay: AUC (0 to infinity) in Sprague-Dawley rat at 5 mg/kg, po; type: ADME, organism-based, Plasma; parameters: time infinity, dose 5 mg/kg, route oral; settings: in vivo
[14] = system: Mus musculus; assay: AUC (0 to infinity) in mouse at 5 mg/kg, po; type: ADME, organism-based, Plasma; parameters: time infinity, dose 5 mg/kg, route oral; settings: in vivo
[15] = Half life in dog at 1 mg/kg, iv; type: ADME, organism-based, Canis lupus familiaris; parameters: dose 1 mg/kg, route intravenous; settings: in vivo
[16] = Half life in cynomolgus monkey at 1 mg/kg, iv; type: ADME, organism-based, Macaca fascicularis; parameters: dose 1 mg/kg, route intravenous; settings: in vivo
[17] = Half life in Sprague-Dawley rat at 1 mg/kg, iv; type: ADME, organism-based; parameters: dose 1 mg/kg, route intravenous; settings: in vivo
[18] = Half life in mouse at 1 mg/kg, iv; type: ADME, organism-based; parameters: dose 1 mg/kg, route intravenous; settings: in vivo
[19] = Volume of distribution at steady state in dog at 1 mg/kg, iv; type: ADME, organism-based, Canis lupus familiaris; parameters: dose 1 mg/kg, route intravenous; settings: in vivo, read-out: Vdss
[20] = Volume of distribution at steady state in cynomolgus monkey at 1 mg/kg, iv; type: ADME, organism-based, Macaca fascicularis; parameters: dose 1 mg/kg, route intravenous; settings: in vivo, read-out: Vdss
[21] = Volume of distribution at steady state in Sprague-Dawley rat at 1 mg/kg, iv; type: ADME, organism-based; parameters: dose 1 mg/kg, route intravenous; settings: in vivo, read-out: Vdss
[22] = Volume of distribution at steady state in mouse at 1 mg/kg, iv; type: ADME, organism-based; parameters: dose 1 mg/kg, route intravenous; settings: in vivo, read-out: Vdss
[23] = Clearance in cynomolgus monkey at 1 mg/kg, iv; type: ADME, organism-based, Macaca fascicularis; parameters: dose 1 mg/kg, route intravenous; settings: in vivo
[24] = Clearance in dog at 1 mg/kg, iv; type: ADME, organism-based, Canis lupus familiaris; parameters: dose 1 mg/kg, route intravenous; settings: in vivo
[25] = Clearance in Sprague-Dawley rat at 1 mg/kg, iv; type: ADME, organism-based; parameters: dose 1 mg/kg, route intravenous; settings: in vivo
[26] = Clearance in mouse at 1 mg/kg, iv; type: ADME, organism-based; parameters: dose 1 mg/kg, route intravenous; settings: in vivo
[27] = system: Human immunodeficiency virus 1; assay: Antiviral activity against NNRTI-resistant HIV1 harboring reverse transcriptase Y181I/V179F double mutant infected in human MT4 cells assessed as inhibition of viral replication after 72 hrs by HeLa-CD4-LTR-beta-gal assay; type: functional, organism-based
[28] = system: Human immunodeficiency virus 1; assay: Antiviral activity against NNRTI-resistant HIV1 harboring reverse transcriptase Y181C/V179F double mutant infected in human MT4 cells assessed as inhibition of viral replication after 72 hrs by HeLa-CD4-LTR-beta-gal assay; type: functional, organism-based
[29] = system: Human immunodeficiency virus 1; assay: Antiviral activity against NNRTI-resistant HIV1 harboring reverse transcriptase Y181C/K103N double mutant infected in human MT4 cells assessed as inhibition of viral replication after 72 hrs by HeLa-CD4-LTR-beta-gal assay; type: functional, organism-based
[30] = system: Human immunodeficiency virus 1; assay: Antiviral activity against NNRTI-resistant HIV1 harboring reverse transcriptase Y181V mutant infected in human MT4 cells assessed as inhibition of viral replication after 72 hrs by HeLa-CD4-LTR-beta-gal assay; type: functional, organism-based
[31] = system: Human immunodeficiency virus 1; assay: Antiviral activity against NNRTI-resistant HIV1 harboring reverse transcriptase Y181I mutant infected in human MT4 cells assessed as inhibition of viral replication after 72 hrs by HeLa-CD4-LTR-beta-gal assay; type: functional, organism-based
[32] = system: Human immunodeficiency virus 1; assay: Selectivity ratio of EC50 for NNRTI-resistant HIV1 harboring reverse transcriptase Y181V mutant to EC50 for HIV1 expressing wild type reverse transcriptase; type: functional
[33] = system: Human immunodeficiency virus 1; assay: Selectivity ratio of EC50 for NNRTI-resistant HIV1 harboring reverse transcriptase Y181I mutant to EC50 for HIV1 expressing wild type reverse transcriptase; type: functional
[34] = system: Human immunodeficiency virus 1; assay: Antiviral activity against NNRTI-resistant HIV1 harboring reverse transcriptase Y181C/F227C double mutant infected in human MT4 cells assessed as inhibition of viral replication after 72 hrs by HeLa-CD4-LTR-beta-gal assay; type: functional, organism-based
[35] = system: Human immunodeficiency virus 1; assay: Selectivity ratio of EC50 for NNRTI-resistant HIV1 harboring reverse transcriptase Y188L mutant to EC50 for HIV1 expressing wild type reverse transcriptase; type: functional

SMILES: Cc1cc(S(N)(=O)=O)ccc1NC(=O)COc1ccc(Cl)cc1C(=O)c1cc(Cl)cc(C#N)c1
- EC50 [1]: 18 nM
- EC50 [2]: 0.5 nM
- EC50 [3]: 0.5 nM
- EC50 [4]: 0.3 nM

SMILES: Cn1cncc1C(=O)NCc1ccc(Cl)c(Oc2cc(Cl)cc(C#N)c2)c1F
- EC50 [1]: > 1000 nM
- EC50 [2]: > 1000 nM
- EC50 [3]: 460 nM
- EC50 [4]: 120 nM

SMILES: N#Cc1cc(Cl)cc(Oc2c(Cl)ccc(CNC(=O)c3[nH]c(O)nc3Cl)c2F)c1
- EC50 [1]: > 1000 nM
- EC50 [2]: 57 nM
- EC50 [3]: 14 nM
- EC50 [4]: 5.3 nM

SMILES: O=C1Nc2ccc(Cl)cc2[C@@](C#CC2CC2)(C(F)(F)F)O1 [EFAVIRENZ]
- EC50 [1]: 157 nM
- EC50 [2]: 1 nM
- EC50 [3]: 20 nM

SMILES: N#Cc1cc(Cl)cc(Oc2c(Cl)ccc(CNC(=O)c3[nH]c(N)nc3Cl)c2F)c1
- EC50 [1]: 0.9 nM
- EC50 [4]: 0.1 nM

SMILES: N#Cc1cc(Cl)cc(Oc2c(Cl)ccc(CNC(=O)c3cc4ccccc4[nH]3)c2F)c1
- EC50 [1]: > 1000 nM
- EC50 [2]: 58 nM
- EC50 [3]: 26 nM
- EC50 [4]: 8.9 nM

SMILES: N#Cc1cc(Cl)cc(Oc2c(Cl)ccc(CNC(=O)c3[nH]cnc3Cl)c2F)c1
- pKa [5]: 8.9
- EC50 [1]: 5.6 nM
- EC50 [2]: 0.2 nM
- EC50 [4]: 0.1 nM

SMILES: N#Cc1cc(Cl)cc(Oc2c(Br)ccc(CNC(=O)c3[nH]c(N)nc3Cl)c2F)c1
- Ratio EC50 [6]: 71
- bioavailability [7]: 34%
- bioavailability [8]: 47%
- bioavailability [9]: 94%
- bioavailability [10]: 84%
- AUC [11]: 6460 ng·h/mL
- AUC [12]: 14300 ng·h/mL
- AUC [13]: 2510 ng·h/mL
- AUC [14]: 9600 ng·h/mL
- half-life [15]: 4.3 h
- half-life [16]: 6.1 h
- half-life [17]: 2.2 h
- half-life [18]: 3.1 h
- Vd [19]: 0.9 L/kg
- Vd [20]: 1.8 L/kg
- Vd [21]: 3.6 L/kg
- Vd [22]: 2.1 L/kg
- clearance [23]: 4.7 mL/min/kg
- clearance [24]: 2.8 mL/min/kg
- clearance [25]: 28.6 mL/min/kg
- clearance [26]: 8.2 mL/min/kg
- inhibition [27]: Active
- inhibition [28]: Active
- inhibition [29]: Active
- inhibition [30]: Active
- inhibition [31]: Active
- Ratio EC50 [32]: <3
- Ratio EC50 [33]: <3
- EC50 ([34]; Human immunodeficiency virus 1, MT4, 72 h): 3.2 nM
- Ratio EC50 [35]: 5
- EC50 [1]: 0.5 nM
- EC50 [4]: 0.1 nM

SMILES: Cc1cc(C#N)cc(C)c1Oc1nc(Nc2ccc(C#N)cc2)nc(N)c1Br [ETRAVIRINE]
- Ratio EC50 [6]: 13
- inhibition [27]: inactive
- inhibition [28]: inactive
- inhibition [29]: inactive
- Ratio EC50 [32]: 83
- inhibition [34]: inactive
- EC50 [1]: 0.9 nM
- EC50 [2]: 2.4 nM
- EC50 [3]: 0.4 nM
- EC50 [4]: 0.6 nM

SMILES: N#Cc1cc(Cl)cc(Oc2c(Cl)ccc(CNC(=O)c3[nH]c(CO)nc3Cl)c2F)c1
- EC50 [1]: 24 nM
- EC50 [2]: 1.2 nM
- EC50 [4]: 0.3 nM

SMILES: N#Cc1cc(Cl)cc(Oc2c(Cl)ccc(CNC(=O)c3ccc(S(N)(=O)=O)cc3Cl)c2F)c1
- EC50 [1]: > 1000 nM
- EC50 [2]: 180 nM
- EC50 [3]: 60 nM
- EC50 [4]: 13 nM

SMILES: N#Cc1cc(Cl)cc(Oc2c(Cl)ccc(CNC(=O)c3[nH]cnc3C(F)(F)F)c2F)c1
- EC50 [1]: 320 nM
- EC50 [2]: 1.4 nM
- EC50 [3]: 0.7 nM
- EC50 [4]: 0.1 nM

SMILES: CCCc1nc(Cl)c(C(=O)NCc2ccc(Cl)c(Oc3cc(Cl)cc(C#N)c3)c2F)[nH]1
- EC50 [1]: 240 nM
- EC50 [2]: 1.3 nM
- EC50 [3]: 0.4 nM
- EC50 [4]: 0.3 nM

SMILES: N#Cc1cc(Cl)cc(Oc2c(Cl)ccc(CNC(=O)c3cnc[nH]3)c2F)c1
- EC50 [1]: > 1000 nM
- EC50 [2]: 260 nM
- EC50 [3]: 48 nM
- EC50 [4]: 9.7 nM

SMILES: CCc1nc(Cl)c(C(=O)NCc2ccc(Cl)c(Oc3cc(Cl)cc(C#N)c3)c2F)[nH]1
- EC50 [1]: 76 nM
- EC50 [2]: 0.8 nM
- EC50 [4]: 0.3 nM

SMILES: Cc1nc(Cl)c(C(=O)NCc2ccc(Cl)c(Oc3cc(Cl)cc(C#N)c3)c2F)[nH]1
- EC50 [1]: 11 nM
- EC50 [2]: 0.3 nM
- EC50 [4]: 0.2 nM

SMILES: N#Cc1cc(Cl)cc(Oc2c(Cl)ccc(CNC(=O)c3[nH]cnc3Br)c2F)c1
- EC50 [1]: 7.1 nM
- EC50 [2]: 0.2 nM
- EC50 [4]: 0.1 nM

SMILES: N#Cc1cc(Cl)cc(Oc2c(Cl)ccc(CNC(=O)c3nc4ccccc4[nH]3)c2F)c1
- EC50 [1]: > 1000 nM
- EC50 [2]: 27 nM
- EC50 [3]: 18 nM
- EC50 [4]: 5.1 nM

SMILES: Cc1nc[nH]c1C(=O)NCc1ccc(Cl)c(Oc2cc(Cl)cc(C#N)c2)c1F
- pKa [5]: > 12
- EC50 [1]: > 1000 nM
- EC50 [2]: 15 nM
- EC50 [3]: 7.2 nM
- EC50 [4]: 2.4 nM

SMILES: N#Cc1cc(Cl)cc(Oc2c(Cl)ccc(CNC(=O)c3cc4ccccc4o3)c2F)c1
- EC50 [1]: > 1000 nM
- EC50 [2]: 340 nM
- EC50 [3]: 380 nM
- EC50 [4]: 52 nM

SMILES: Cc1cc(/C=C/C#N)cc(C)c1Nc1ccnc(Nc2ccc(C#N)cc2)n1 [RILPIVIRINE]
- inhibition [27]: inactive
- inhibition [28]: inactive
- inhibition [29]: inactive
- inhibition [34]: inactive
- EC50 [1]: 3.7 nM
